This is an account of results in patent US20100125059A1, “1-BIARYLAZETIDINONE DERIVATIVE” (Teijin Pharma Limited, priority 2007, published 2010).

Like-named read-outs stand apart in the source and are kept apart here.

The subject of one test is Caco-2 cells. The test can be described thus: Cholesterol absorption inhibition assay (in vitro), [14C] cholesterol mixed micelles. The format is cell-based. The settings on record: Homo sapiens, 24 hours, read-out: cholesterol absorption inhibitory activity; for inhibition at 10 µM: concentration of 10 μM; for inhibition at 12.5 µM: concentration of 12.5 μM. As to the method: This assay measures cholesterol absorption inhibitory activity by adding mixed micelles containing [^14C] cholesterol to cells and measuring cholesterol taken in the cells as oleic acid cholesteryl ester. The assay is conducted after Caco-2 cells are seeded on multi-well plates and cultured (culture medium: DMEM containing 10% fetal bovine serum, 1% non-essential amino acids, 1% penicillin, and 1% streptomycin) for 2 weeks. To each well, the micelle solution (in an amount required to provide the following final concentrations: 600 μM of sodium oleate, 50 μM of phosphatidyl choline, 5 mM of sodium taurocholate, 2.5 μM of cholesterol, and 2.5 μM of [^14C] cholesterol) and a test compound solution (in an amount required to provide the final concentration of 0.5 to 25 μM) or a solvent as a control are added, and incubation is started at 37° C. 24 hours later, the culture medium is removed, and the lipid component is extracted with hexane/2-propanol (3:2, v/v) and applied onto thin-layer silica gel plates. After drying, each plate is eluted with a mixture of hexane, diethyl ether, and acetic acid in a ratio of 83:16:1. The plates are photoexposed on imaging plates and analyzed using BAS-2500 (FUJIFILM). The amounts of light exposure of the areas corresponding to the cholesteryl ester are calculated. Background is measured using a blank space of the plate. Inhibition rates are calculated using values obtained by subtracting the background values from both values of the control and the test sample, respectively, in accordance with the following equation. A test value is calculated as a percentage (%) with respect to the control.
In the Equation 1, A is the control group, BG is a background, and B is the test compound.
The following results were obtained from the measurement by this method on cholesterol absorption inhibitory activity of the compounds of the present invention. The following results were obtained by the evaluation using concentrations of 10 μM and/or 12.5 μM.

Test [1] relates to hamsters fed a high cholesterol diet. The test can be described thus: Measurement of lipid lowering effect in hamsters fed a high cholesterol diet. In kind it is in vivo, Male Golden Syrian hamsters. The settings on record: for inhibition in vivo at 0.01 mg/kg / inhibition in vivo at 0.1 mg/kg: Mesocricetus auratus, po, 168 h, gavage once daily, 7 days. An outline of the steps:
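Male Golden Syrian hamsters (6/group) on 0.5% cholesterol diet, dosed by gavage once daily in corn oil at 0.01 to 10 mg/kg; serum and liver sampled 4 h after last dose. TC, TG and LDL-C measured enzymatically; effects expressed as % suppression versus control and normal-diet groups.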

Where [2] appears, read: read-out: serum LDL-C lowering effect (suppression rate of an increase in serum LDL-C concentration).
Setting [3] is: dose 0.1 mg/kg, read-out: serum LDL-C lowering effect (suppression rate of an increase in serum LDL-C concentration).
Where [4] appears, read: dose 0.1 mg/kg, read-out: serum TC lowering effect (suppression rate of an increase in serum TC concentration).
Where [5] appears, read: read-out: serum TC lowering effect (suppression rate of an increase in serum TC concentration).
Setting [6] is: dose 0.1 mg/kg, read-out: liver TC lowering effect (suppression rate of an increase in liver TC concentration).
[7] abbreviates: dose 0.1 mg/kg, read-out: serum TG lowering effect (serum TG lowering rate).

`CN(C)c1ccc(-c2ccc(N3C(=O)[C@H](SC[C@H](O)c4ccc(F)cc4)[C@H]3c3ccc(O)cc3)cc2)cn1` [Example 22, (3R,4R)-3-[(2R)-2-(4-fluorophenyl)-2-hydroxyethylthio]-1-[4-(6-dimethylaminopyridin-3-yl)phenyl]-4-(4-hydroxyphenyl)azetidin-2-one]: the inhibition at 10 µM with Caco-2 cells was not below 50%. Moreover, in the test on Caco-2 cells, the inhibition at 12.5 µM is not below 60%. Besides, the inhibition in vivo at 0.01 mg/kg in test [1] (read-out: liver TC lowering effect (suppression rate of an increase in liver TC concentration)) and in test [1] (setting [2]) was not below 30% each time. For the same molecule, the inhibition in vivo at 0.1 mg/kg in test [1] (setting [3]) and in test [1] (setting [4]) was not below 50% throughout.
In the case of `O=C1[C@H](SC[C@H](O)c2ccc(Cl)c(F)c2)[C@@H](c2ccc(O)cc2)N1c1ccc(-c2cccnc2)cc1` [Example 81, (3R,4R)-3-[(2R)-2-(4-chloro-3-fluorophenyl)-2-hydroxyethylthio]-4-(4-hydroxyphenyl)-1-[4-(pyridin-3-yl)phenyl]azetidin-2-one], the inhibition at 12.5 µM with Caco-2 cells was not below 60%. For the same molecule, the inhibition in vivo at 0.1 mg/kg in test [1] (setting [3]) and in test [1] (setting [4]) was not below 50% in each case.
As to `Cc1ccc(-c2ccc(N3C(=O)[C@H](SC[C@H](O)c4ccc(Cl)cc4)[C@H]3c3ccc(O)cc3)cc2)cn1` [Example 91, (3R,4R)-3-[(2R)-2-(4-chlorophenyl)-2-hydroxyethylthio]-4-(4-hydroxyphenyl)-1-[4-(6-methylpyridin-3-yl)phenyl]azetidin-2-one], the inhibition at 12.5 µM with Caco-2 cells was not below 60%. Further, the inhibition in vivo at 0.01 mg/kg in test [1] (setting [5]) was not below 30%.
For the molecule `O=C1[C@H](SC[C@H](O)c2ccc(F)cc2)[C@@H](c2ccc(O)cc2)N1c1ccc(-c2ccncc2Cl)cc1` [Example 12, (3R,4R)-3-[(2R)-2-(4-fluorophenyl)-2-hydroxyethylthio]-1-[4-(3-chloropyridin-4-yl)phenyl]-4-(4-hydroxyphenyl)azetidin-2-one], the inhibition at 10 µM with Caco-2 cells is not below 50%. In addition, the inhibition in vivo at 0.1 mg/kg in test [1] (setting [3]) is not below 50%.
Turning to `Cc1cc(O)ccc1[C@@H]1[C@@H](SC[C@H](O)c2ccc(F)cc2)C(=O)N1c1ccc(-c2cccnc2)cc1` [Example 38, (3R,4R)-3-[(2R)-2-(4-fluorophenyl)-2-hydroxyethylthio]-4-(4-hydroxy-2-methylphenyl)-1-[4-(pyridin-3-yl)phenyl]azetidin-2-one], the inhibition at 10 µM in the test with Caco-2 cells is not below 50%. In test [1] (setting [2]), the inhibition in vivo at 0.01 mg/kg was not below 30%. For the same molecule, the inhibition in vivo at 0.1 mg/kg in test [1] (setting [3]) and in test [1] (setting [4]) was not below 50% in each case.
`O=C1[C@H](SC[C@H](O)c2ccc(Cl)cc2)[C@@H](c2ccc(O)cc2)N1c1ccc(-c2ccc(Cl)nc2)cc1` [Example 94, (3R,4R)-3-[(2R)-2-(4-chlorophenyl)-2-hydroxyethylthio]-1-[4-(6-chloropyridin-3-yl)phenyl]-4-(4-hydroxyphenyl)azetidin-2-one]: the inhibition at 12.5 µM with Caco-2 cells was not below 60%. Further, in test [1] (setting [6]), the inhibition in vivo at 0.1 mg/kg is not below 50%.
As to `COc1cc(O)ccc1[C@@H]1[C@@H](SC[C@H](O)c2ccc(F)cc2)C(=O)N1c1ccc(-c2cccnc2)cc1` [Example 24, (3R,4R)-3-[(2R)-2-(4-fluorophenyl)-2-hydroxyethylthio]-4-(4-hydroxy-2-methoxyphenyl)-1-[4-(pyridin-3-yl)phenyl]azetidin-2-one], the inhibition at 10 µM in the test on Caco-2 cells is not below 50%. Besides, the inhibition in vivo at 0.1 mg/kg in test [1] (setting [6]) and in test [1] (setting [4]) was not below 50% each time.
Take `O=C1[C@H](SC[C@H](O)c2ccc(F)cc2)[C@@H](c2ccc(O)cc2)N1c1ccc(-c2cccnc2Cl)cc1` [Example 15, (3R,4R)-3-[(2R)-2-(4-fluorophenyl)-2-hydroxyethylthio]-1-[4-(2-chloropyridin-3-yl)phenyl]-4-(4-hydroxyphenyl)azetidin-2-one]: the inhibition at 10 µM in the test on Caco-2 cells is not below 50%. Besides, the inhibition in vivo at 0.1 mg/kg in test [1] (setting [3]) was not below 50%; in test [1] (setting [7]), not below 20%.
For `O=C1[C@H](SC[C@H](O)c2ccc(F)cc2)[C@@H](c2ccc(O)cc2)N1c1ccc(-c2cncc(C(F)(F)F)c2)cc1` [Example 51, (3R,4R)-3-[(2R)-2-(4-fluorophenyl)-2-hydroxyethylthio]-4-(4-hydroxyphenyl)-1-[4-(5-trifluoromethylpyridin-3-yl)phenyl]azetidin-2-one], the inhibition at 10 µM in the test with Caco-2 cells was not below 50%. Also, the inhibition in vivo at 0.01 mg/kg in test [1] (setting [5]) was not below 30%. In addition, in test [1] (setting [7]), the inhibition in vivo at 0.1 mg/kg was not below 20%. Besides, in test [1] (Table 22, suppression rate of an increase in serum TC concentration, dose 0.1 mg/kg), the “a serum TC lowering effect at a dose of 0.1 mg/kg” value is recorded as 104%.
For `O=C1[C@H](SC[C@H](O)c2ccc3sccc3c2)[C@@H](c2ccc(O)cc2)N1c1ccc(-c2cccnc2)cc1` [Example 83, (3R,4R)-3-((2R)-2-benzo[b]thiophen-5-yl-2-hydroxyethylthio)-4-(4-hydroxyphenyl)-1-[4-(pyridin-3-yl)phenyl]azetidin-2-one], in the test with Caco-2 cells, the inhibition at 12.5 µM was not below 60%. Also, the inhibition in vivo at 0.1 mg/kg in test [1] (setting [3]) and in test [1] (setting [4]) was not below 50% throughout.
For the molecule `COc1cc(N2C(=O)[C@H](SC[C@H](O)c3ccc(F)cc3)[C@H]2c2ccc(O)cc2)ccc1-c1cccnc1` [Example 52, (3R,4R)-3-[(2R)-2-(4-fluorophenyl)-2-hydroxyethylthio]-4-(4-hydroxyphenyl)-1-[3-methoxy-4-(pyridin-3-yl)phenyl]azetidin-2-one], the inhibition at 10 µM with Caco-2 cells was not below 50%. The inhibition in vivo at 0.1 mg/kg in test [1] (setting [7]) was not below 20%.
Regarding `O=C1[C@H](SC[C@H](O)c2ccc(F)cc2)[C@@H](c2ccc(O)cc2Cl)N1c1ccc(-c2cccnc2)cc1` [Example 59, (3R,4R)-3-[(2R)-2-(4-fluorophenyl)-2-hydroxyethylthio]-4-(2-chloro-4-hydroxyphenyl)-1-[4-(pyridin-3-yl)phenyl]azetidin-2-one], the inhibition at 12.5 µM in the test with Caco-2 cells was not below 60%. Further, the inhibition in vivo at 0.01 mg/kg in test [1] (setting [5]) was not below 30%. Further, the inhibition in vivo at 0.1 mg/kg was not below 50% in test [1] (setting [6]) and not below 20% in test [1] (setting [7]).
For the molecule `COc1ncccc1-c1ccc(N2C(=O)[C@H](SC[C@H](O)c3ccc(F)cc3)[C@H]2c2ccc(O)cc2)cc1` [Example 6, (3R,4R)-3-[(2R)-2-(4-fluorophenyl)-2-hydroxyethylthio]-4-(4-hydroxyphenyl)-1-[4-(2-methoxypyridin-3-yl)phenyl]azetidin-2-one], the inhibition at 12.5 µM in the test with Caco-2 cells was not below 60%. In addition, the inhibition in vivo at 0.1 mg/kg in test [1] (setting [4]) is not below 50%; in test [1] (setting [7]), not below 20%.
As for `Cc1cc(O)ccc1[C@@H]1[C@@H](SC[C@H](O)c2ccc(F)cc2)C(=O)N1c1ccc(-c2cncc(C(F)(F)F)c2)cc1` [Example 99, (3R,4R)-3-[(2R)-2-(4-fluorophenyl)-2-hydroxyethylthio]-4-(4-hydroxy-2-methylphenyl)-1-[4-(5-trifluoromethylpyridin-3-yl)phenyl]azetidin-2-one], in the test with Caco-2 cells, the inhibition at 12.5 µM was not below 60%. The inhibition in vivo at 0.1 mg/kg in test [1] (setting [7]) is not below 20%.
On to `COc1ccc(-c2ccc(N3C(=O)[C@H](SC[C@H](O)c4ccc(F)cc4)[C@H]3c3ccc(O)cc3)cc2)c(OC)n1` [Example 7, (3R,4R)-3-[(2R)-2-(4-fluorophenyl)-2-hydroxyethylthio]-1-[4-(2,6-dimethoxypyridin-3-yl)phenyl]-4-(4-hydroxyphenyl)azetidin-2-one], for which the inhibition at 10 µM with Caco-2 cells was not below 50%. Moreover, the inhibition in vivo at 0.1 mg/kg in test [1] (setting [7]) is not below 20%.
With `O=C1[C@H](SC[C@H](O)c2ccc(F)cc2Cl)[C@@H](c2ccc(O)cc2)N1c1ccc(-c2cccnc2)cc1` [Example 90, (3R,4R)-3-[(2R)-2-(2-chloro-4-fluorophenyl)-2-hydroxyethylthio]-4-(4-hydroxyphenyl)-1-[4-(pyridin-3-yl)phenyl]azetidin-2-one], in the test with Caco-2 cells, the inhibition at 12.5 µM was not below 60%. Moreover, the inhibition in vivo at 0.1 mg/kg in test [1] (setting [3]) and in test [1] (setting [4]) was not below 50% throughout.
